Measurements as given in patent US11673898B2, “Substituted inhibitors of menin-MLL and methods of use” (Kura Oncology, Inc., priority 2016, dated 2023).

Target: T1, Menin MLL 4-43 (Homo sapiens, UniProt O00255)
T1 sequence (O00255 1-610): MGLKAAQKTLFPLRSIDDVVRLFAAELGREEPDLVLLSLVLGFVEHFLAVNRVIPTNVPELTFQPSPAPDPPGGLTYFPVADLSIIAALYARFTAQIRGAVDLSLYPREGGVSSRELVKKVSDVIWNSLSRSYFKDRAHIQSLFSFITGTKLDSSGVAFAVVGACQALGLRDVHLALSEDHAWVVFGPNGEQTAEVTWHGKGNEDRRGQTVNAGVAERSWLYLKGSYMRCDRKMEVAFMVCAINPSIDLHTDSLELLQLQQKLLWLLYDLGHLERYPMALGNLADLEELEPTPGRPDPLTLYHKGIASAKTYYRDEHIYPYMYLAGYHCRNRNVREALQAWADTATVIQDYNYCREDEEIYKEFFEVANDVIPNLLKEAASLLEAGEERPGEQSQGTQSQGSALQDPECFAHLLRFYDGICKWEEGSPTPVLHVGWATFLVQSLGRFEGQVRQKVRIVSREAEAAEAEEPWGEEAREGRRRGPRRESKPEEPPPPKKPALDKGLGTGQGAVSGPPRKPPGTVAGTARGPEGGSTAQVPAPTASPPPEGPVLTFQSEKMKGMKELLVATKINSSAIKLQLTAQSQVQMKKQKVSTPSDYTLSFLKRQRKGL
Experiment: Fluorescence polarization (FP) competition assay of the menin-MLL interaction
Type: binding
Details: fluorescence polarization assay; read-out: Menin MLL 4-43 IC50

Compound | IC50 [nM]
Cc1c(CN2CCC(Nc3ncnc4sc(CC(F)(F)F)cc34)CC2)ccc2c1cc(C#N)n2C[C@@H](C)N1CCN(S(=O)(=O)CF)CC1 [Compound 71] | > 1000
Cc1c(CN2CCC(Nc3ncnc4sc(CC(F)(F)F)cc34)CC2)ccc2c1cc(C#N)n2CC(C)N1CCN(S(C)(=O)=O)C(C(=O)O)C1 (centres unmarked) [Compound 82] | 20 to 1000
Cc1c(CN2CCC(Nc3ncnc4sc(CC(F)(F)F)cc34)CC2)ccc2c1cc(C#N)n2CC(C)N1C2CCC1CN(S(C)(=O)=O)C2 (centres unmarked) [Compound 94] | 50 to 250
Cc1c(CN2CCC(Nc3ncnc4sc(CC(F)(F)F)cc34)CC2)ccc2c1cc(C#N)n2C[C@H](C)N1CCN(S(=O)(=O)CC(C)C)CC1 [Compound 116] | 50 to 250
Cc1c(CN2CCC(Nc3ncnc4sc(CC(F)(F)F)cc34)CC2)ccc2c1cc(C#N)n2C[C@H](C)N1CCN(C(=O)C2CC2)CC1 [Compound 117] | 50 to 250
Cc1c(CN2CCC(Nc3ncnc4sc(CC(F)(F)F)cc34)CC2)ccc2c1cc(C#N)n2C[C@H](C)N1CCN(C(=O)C(F)(F)F)CC1 [Compound 118] | 20 to 1000
Cc1c(CN2CCC(Nc3ncnc4sc(CC(F)(F)F)cc34)CC2)ccc2c1cc(C#N)n2C[C@H](C)N1CCN(S(=O)(=O)NCC(C)C)CC1 [Compound 120] | 50 to 250
Cc1c(CN2CCC(Nc3ncnc4sc(CC(F)(F)F)cc34)CC2)ccc2c1cc(C#N)n2C[C@H](C)N1CCN(S(=O)(=O)N2CCC2)CC1 [Compound 121] | 50 to 250
Cc1c(CN2CCC(Nc3ncnc4sc(CC(F)(F)F)cc34)CC2)ccc2c1cc(C#N)n2C[C@H](C)N1CCN(C(=O)CC(F)(F)F)CC1 [Compound 122] | 50 to 250
Cc1c(CN2CCC(Nc3ncnc4sc(CC(F)(F)F)cc34)CC2)ccc2c1cc(C#N)n2CC(C)N1C[C@@H](C)N(S(=O)(=O)CF)[C@H](C)C1 (some centres unmarked) [Compound 124] | 50 to 250
Cc1c(CN2CCC(Nc3ncnc4sc(CC(F)(F)F)cc34)CC2)ccc2c1cc(C#N)n2C[C@H](C)N1CCN(S(=O)(=O)NCC(F)F)CC1 [Compound 125] | 50 to 250
Cc1c(CN2CCC(Nc3ncnc4sc(CC(F)(F)F)cc34)CC2)ccc2c1cc(C#N)n2C[C@H](C)N1CCN(S(=O)(=O)CC(F)(F)F)CC1 [Compound 126] | 50 to 250
Cc1c(CN2CCC(Nc3ncnc4sc(CC(F)(F)F)cc34)CC2)ccc2c1cc(C#N)n2C[C@H](C)N1CCN(S(=O)(=O)C2CCC2)CC1 [Compound 127] | 50 to 250
CNS(=O)(=O)C1CCN(C(C)Cn2c(C#N)cc3c(C)c(CN4CCC(Nc5ncnc6sc(CC(F)(F)F)cc56)CC4)ccc32)CC1 (centres unmarked) [Compound 128] | 50 to 250
Cc1c(CN2CCC(Nc3ncnc4sc(CC(F)(F)F)cc34)CC2)ccc2c1cc(C#N)n2C[C@H](C)N1CCN(S(=O)(=O)NCC(F)(F)F)CC1 [Compound 130] | 50 to 250
COCC(=O)N1CCN([C@@H](C)Cn2c(C#N)cc3c(C)c(CN4CCC(Nc5ncnc6sc(CC(F)(F)F)cc56)CC4)ccc32)CC1 [Compound 133] | 50 to 250
Cc1nc(NC2CCN(Cc3ccc4c(cc(C#N)n4C[C@H](C)N4CCN(S(=O)(=O)CF)CC4)c3C)CC2)c2cc(CC(F)(F)F)sc2n1 [Compound 137] | 50 to 250
Cc1c(CN2CCC(Nc3ncnc4sc(CC(F)(F)F)cc34)CC2)ccc2c1cc(C#N)n2C[C@H](C)N1CCN(S(=O)(=O)N2CC2)CC1 [Compound 140] | 50 to 250

The next lines start with the values.

IC50 [nM] | Compound
50 to 250 | CNC(=O)N1CCN([C@@H](C)Cn2c(C#N)cc3c(C)c(CN4CCC(Nc5ncnc6sc(CC(F)(F)F)cc56)CC4)ccc32)CC1 [Compound 68]
50 to 250 | Cc1c(CN2CCC(Nc3ncnc4sc(CC(F)(F)F)cc34)CC2)ccc2c1cc(C#N)n2C[C@H](C)N1CCN(S(=O)(=O)CCF)CC1 [Compound 69]
50 to 250 | Cc1c(CN2CCC(Nc3ncnc4sc(CC(F)(F)F)cc34)CC2)ccc2c1cc(C#N)n2C[C@H](C)N1CCN(S(=O)(=O)CF)CC1 [Compound 70]
50 to 250 | COC(=O)N1CCN([C@@H](C)Cn2c(C#N)cc3c(C)c(CN4CCC(Nc5ncnc6sc(CC(F)(F)F)cc56)CC4)ccc32)CC1 [Compound 72]
< 50 | Cc1c(CN2CCC(Nc3ncnc4sc(CC(F)(F)F)cc34)CC2)ccc2c1cc(C#N)n2C[C@H](C)N1CCN(S(=O)(=O)NC2CC2)CC1 [Compound 73]
50 to 250 | [2H]C([2H])(C(C)N1CCN(S(C)(=O)=O)CC1)n1c(C#N)cc2c(C)c(CN3CCC(Nc4ncnc5sc(CC(F)(F)F)cc45)CC3)ccc21 (centres unmarked) [Compound 74]
50 to 250 | CNC(=O)C1CCN(C(C)Cn2c(C#N)cc3c(C)c(CN4CCC(Nc5ncnc6sc(CC(F)(F)F)cc56)CC4)ccc32)CC1 (centres unmarked) [Compound 84]
< 50 | Cc1c(CN2CCC(Nc3ncnc4sc(CC(F)(F)F)cc34)CC2)ccc2c1cc(C#N)n2C[C@H](C)N1CCN(S(=O)(=O)CCO)CC1 [Compound 85]
50 to 250 | Cc1c(CN2CCC(Nc3ncnc4sc(CC(F)(F)F)cc34)CC2)ccc2c1cc(C#N)n2CC(C)N1CCN(S(=O)(=O)N(C)C)CC1 (centres unmarked) [Compound 87]
< 50 | Cc1c(CN2CCC(Nc3ncnc4sc(CC(F)(F)F)cc34)CC2)ccc2c1cc(C#N)n2CC(C)N1CCN(S(=O)(=O)NCCN)CC1 (centres unmarked) [Compound 88]
< 50 | Cc1c(CN2CCC(Nc3ncnc4sc(CC(F)(F)F)cc34)CC2)ccc2c1cc(C#N)n2C[C@H](C)N1CCN(S(=O)(=O)N(C)C)CC1 [Compound 89]
< 50 | Cc1c(CN2CCC(Nc3ncnc4sc(CC(F)(F)F)cc34)CC2)ccc2c1cc(C#N)n2CC(C)N1CCC(S(C)(=O)=O)CC1 (centres unmarked) [Compound 90]
50 to 250 | Cc1c(CN2CCC(Nc3ncnc4sc(CC(F)(F)F)cc34)CC2)ccc2c1cc(C#N)n2C[C@@H](C)N1C[C@@H](C)N(S(C)(=O)=O)[C@H](C)C1 [Compound 91]
< 50 | Cc1c(CN2CCC(Nc3ncnc4sc(CC(F)(F)F)cc34)CC2)ccc2c1cc(C#N)n2C[C@H](C)N1C[C@@H](C)C(S(C)(=O)=O)[C@H](C)C1 [Compound 92]
< 50 | C=CC(=O)Nc1ccc(C(C)Cn2c(C#N)cc3c(C)c(CN4CCC(Nc5ncnc6sc(CC(F)(F)F)cc56)CC4)ccc32)cn1 (centres unmarked) [Compound 93]
< 50 | Cc1c(CN2CCC(Nc3ncnc4sc(CC(F)(F)F)cc34)CC2)ccc2c1cc(C#N)n2C[C@H](C)N1CCN(S(=O)(=O)C2CC2)CC1 [Compound 115]
< 50 | CCNS(=O)(=O)N1CCN([C@@H](C)Cn2c(C#N)cc3c(C)c(CN4CCC(Nc5ncnc6sc(CC(F)(F)F)cc56)CC4)ccc32)CC1 [Compound 119]
< 50 | COCCNS(=O)(=O)N1CCN([C@@H](C)Cn2c(C#N)cc3c(C)c(CN4CCC(Nc5ncnc6sc(CC(F)(F)F)cc56)CC4)ccc32)CC1 [Compound 123]
< 50 | Cc1c(CN2CCC(Nc3ncnc4sc(CC(F)(F)F)cc34)CC2)ccc2c1cc(C#N)n2C[C@H](C)N1CCN(S(=O)(=O)NCCF)CC1 [Compound 129]
< 50 | Cc1c(CN2CCC(Nc3ncnc4sc(CC(F)(F)F)cc34)CC2)ccc2c1cc(C#N)n2C[C@H](C)N1CCN(S(=O)(=O)NCCO)CC1 [Compound 131]
< 50 | Cc1c(CN2CCC(Nc3nc(N)nc4sc(CC(F)(F)F)cc34)CC2)ccc2c1cc(C#N)n2C[C@H](C)N1CCN(C=O)CC1 [Compound 134]
< 50 | Cc1nc(NC2CCN(Cc3ccc4c(cc(C#N)n4C[C@H](C)N4CCN(C=O)CC4)c3C)CC2)c2cc(CC(F)(F)F)sc2n1 [Compound 136]
< 50 | CCCNS(=O)(=O)N1CCN([C@@H](C)Cn2c(C#N)cc3c(C)c(CN4CCC(Nc5ncnc6sc(CC(F)(F)F)cc56)CC4)ccc32)CC1 [Compound 141]
